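Step 1: Grow cells in 96-well plates. Step 2: Expose to compound for 48 hours at 5 concentrations. Step 3: Interpolate endpoints linearly; if unreached, use highest concentration. GI50 = concentration required for 50% inhibition of growth.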 Active and inactive are the calls of the source. Cut-off read from the data, not from the text of the source: active = GI50 up to about 1.1 µM and inactive = higher.
Columns and labels:
Test in all cases: inhibition of tumour cell growth, NCI panel, 48 h
[1] = test system: HCT-15
[2] = test system: SF-539
[3] = test system: IGROV-1
[4] = test system: A549
[5] = test system: SNB-75
[6] = test system: UACC-257
[7] = test system: Hs-578T
[8] = test system: SR
[9] = test system: U-251
[10] = test system: MDA-MB-435
[11] = test system: CCRF-CEM
[12] = test system: NCI-H460
[13] = test system: DU-145
[14] = test system: OVCAR-8
[15] = test system: LOX IMVI
[16] = test system: CAKI-1
[17] = test system: MOLT-4
[18] = test system: ACHN
[19] = test system: A498

Row | SMILES | GI50 [1] | GI50 [2] | GI50 [3] | GI50 [4] | GI50 [5] | GI50 [6] | GI50 [7] | GI50 [8] | GI50 [9] | GI50 [10] | GI50 [11] | GI50 [12] | GI50 [13] | GI50 [14] | GI50 [15] | GI50 [16] | GI50 [17] | GI50 [18] | GI50 [19]
1 | CCN(CC)CCN(/C(=N/c1ccccc1)N1CCOCC1)c1ccccc1 | > 100 µM | > 100 µM (inactive) | 48.4 µM (inactive) | > 100 µM (inactive) | > 100 µM (inactive) | > 100 µM (inactive) | > 100 µM (inactive) | 50.6 µM (inactive) | > 100 µM (inactive) | 28.8 µM (inactive) | > 100 µM (inactive) | > 100 µM (inactive) | > 100 µM (inactive) | > 100 µM (inactive) | 44.6 µM (inactive) | > 100 µM (inactive) | > 100 µM (inactive) | – | –
2 | O=C(Nc1cccc(C(F)(F)F)c1)C(=O)C(C(=O)c1ccc2ccccc2c1)C1OC(=O)c2ccccc21 (stereo not drawn) | 8.13 µM | 2.23 µM (inactive) | 18.2 µM (inactive) | 10.7 µM (inactive) | 12 µM (inactive) | 11.5 µM (inactive) | 7.14 µM (inactive) | 3.24 µM (inactive) | 4.08 µM (inactive) | 17.4 µM (inactive) | 3.18 µM (inactive) | 5.61 µM (inactive) | 26.5 µM (inactive) | 6.35 µM (inactive) | 4.23 µM (inactive) | 12.4 µM (inactive) | 1.82 µM (inactive) | 12.6 µM (inactive) | 9.93 µM (inactive)
3 | CC(=O)OCC1OC(n2c(-c3cccs3)c3c(c(C#N)c2=S)-c2ccccc2CC3)C(OC(C)=O)C(OC(C)=O)C1OC(C)=O (stereo not drawn) | 8.26 µM | 9.57 µM (inactive) | 9.04 µM (inactive) | 13.2 µM (inactive) | 1.36 µM (inactive) | 12.8 µM (inactive) | 7.52 µM (inactive) | 3.05 µM (inactive) | 10.1 µM (inactive) | 2.77 µM (inactive) | 9.91 µM (inactive) | 11.5 µM (inactive) | 23.9 µM (inactive) | 5.38 µM (inactive) | 6.82 µM (inactive) | 9.59 µM (inactive) | 4.48 µM (inactive) | 9.64 µM (inactive) | 7.66 µM (inactive)
4 | OCCCNc1ccnc2cc(Cl)ccc12 | > 100 µM | > 100 µM (inactive) | > 100 µM (inactive) | > 100 µM (inactive) | > 100 µM (inactive) | > 100 µM (inactive) | – | > 100 µM (inactive) | > 100 µM (inactive) | – | > 100 µM (inactive) | > 100 µM (inactive) | – | > 100 µM (inactive) | > 100 µM (inactive) | > 100 µM (inactive) | > 100 µM (inactive) | > 100 µM (inactive) | > 100 µM (inactive)
5 | Nc1c(-c2ccc(Cl)cc2Cl)[n+]([O-])c2ccccc2[n+]1[O-] | > 100 µM | > 100 µM (inactive) | > 100 µM (inactive) | > 100 µM (inactive) | 48.2 µM (inactive) | > 100 µM (inactive) | – | – | > 100 µM (inactive) | – | > 100 µM (inactive) | > 100 µM (inactive) | – | > 100 µM (inactive) | > 100 µM (inactive) | > 100 µM (inactive) | > 100 µM (inactive) | > 100 µM (inactive) | > 100 µM (inactive)
6 | CCOC(=O)C1=C(C)N(Cc2ccccc2)C2(O)C(OC)CC(=O)C3C(=O)N(c4ccccc4)C(=O)C132 (stereo not drawn) | 5.75 µM | 15 µM (inactive) | 15.7 µM (inactive) | 7.74 µM (inactive) | – | 15.5 µM (inactive) | 83.4 µM (inactive) | 3.55 µM (inactive) | 6.53 µM (inactive) | 5.05 µM (inactive) | 3.91 µM (inactive) | 6.98 µM (inactive) | 3.9 µM (inactive) | 5.53 µM (inactive) | 3.39 µM (inactive) | 17 µM (inactive) | 7.45 µM (inactive) | 10.4 µM (inactive) | 21.5 µM (inactive)
7 | c1cnc2c(c1)-n1cccc1C1(CCCCC1)NN2 | 37.4 µM | > 100 µM (inactive) | – | 54 µM (inactive) | > 100 µM (inactive) | 48.4 µM (inactive) | – | 40 µM (inactive) | – | – | 41.5 µM (inactive) | 61.5 µM (inactive) | – | > 100 µM (inactive) | 50 µM (inactive) | 60 µM (inactive) | 24.5 µM (inactive) | 88.3 µM (inactive) | –
8 | COc1cc2c(c(OC)c1O)-c1ccc(SC)c(=O)cc1C(NC(C)=O)CC2 (stereo not drawn) | 1.06 µM | < 0.01 µM (active) | 0.0593 µM (active) | 0.04 µM (active) | < 0.01 µM (active) | 2.24 µM (inactive) | – | 0.0112 µM (active) | < 0.0146 µM (active) | – | < 0.01 µM (active) | 0.0341 µM (active) | – | 0.0307 µM (active) | < 0.01 µM (active) | 0.285 µM (active) | < 0.0122 µM (active) | 0.557 µM (active) | 0.195 µM (active)

From ChEMBL document CHEMBL1201862, “PubChem BioAssay data set” (2004)
